Laboratory results reported in publication PMC6760013, “Synthesis and Inhibition Evaluation of New Benzyltetrahydroprotoberberine Alkaloids Designed as Acetylcholinesterase Inhibitors” (Frontiers in Chemistry, 2019).

Legend:
AChE = test system: AChE; set-up: method as in Loizzo et al., 2008; conditions: AChE inhibition; ref Loizzo et al., 2008; cited from earlier work
[1] = target: T1, AChE from Electrophorus electricus (eelAChE) type VI-S (Electrophorus electricus, UniProt O42275); test: biochemical; conditions: for mechanism of inhibition: double-reciprocal (Lineweaver-Burk) plots; for IC50 / Ki: eelAChE-ICER; for IC50: 20 μL ACh stock 500 μM in 100 μL reaction mixture, non-linear regression; for Ki: ACh 10 to 150 μM, inhibitor 0, 10, 50 and 75 μM, Lineweaver-Burk replot, read-out: Ki (steady-state inhibition constant); for inhibition: pH 8, 10 μL of 1.0 mM compound stock in 100 μL reaction mixture, read-out: % Inhibition eelAChE-ICER
T1 construct: purchased Sigma-Aldrich type VI-S
T1 sequence (O42275 24-633): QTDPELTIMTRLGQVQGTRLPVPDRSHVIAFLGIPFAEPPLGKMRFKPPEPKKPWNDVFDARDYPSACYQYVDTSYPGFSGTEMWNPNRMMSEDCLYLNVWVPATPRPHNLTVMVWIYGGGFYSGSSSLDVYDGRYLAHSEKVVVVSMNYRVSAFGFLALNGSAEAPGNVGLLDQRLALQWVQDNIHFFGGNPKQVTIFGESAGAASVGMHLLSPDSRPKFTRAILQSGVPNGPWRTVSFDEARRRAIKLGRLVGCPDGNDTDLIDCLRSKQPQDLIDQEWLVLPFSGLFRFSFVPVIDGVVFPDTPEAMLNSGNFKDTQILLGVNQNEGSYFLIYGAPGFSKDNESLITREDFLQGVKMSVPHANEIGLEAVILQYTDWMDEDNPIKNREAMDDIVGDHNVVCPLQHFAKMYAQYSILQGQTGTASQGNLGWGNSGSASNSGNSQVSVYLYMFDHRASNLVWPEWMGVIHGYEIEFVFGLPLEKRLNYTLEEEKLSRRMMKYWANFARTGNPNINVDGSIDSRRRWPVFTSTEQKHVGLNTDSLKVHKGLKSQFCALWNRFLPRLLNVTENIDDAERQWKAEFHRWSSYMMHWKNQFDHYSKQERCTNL
Experimental: AChE from Electrophorus electricus (type VI-S) was immobilized in a fused-silica capillary tube (eelAChE-ICER) according to a previously reported protocol (Vanzolini et al., [2013]). An enzyme solution containing 2 units/mL eelAChE was used in the immobilization procedure. The LC-MS system was set up for the eelAChE-ICER as previously described (Vanzolini et al., [2013]). The mobile phase (15 mM ammonium acetate solution, pH 8.0) was infused by pump 1 at a flow rate of 50 μL/min and pump 2 delivered acetonitrile after the eelAChE-ICER at a flow rate of 50 μL/min. IT-MS parameters were: 3,713 V capillary voltage, 500 V end plate voltage, […] drying gas, 300°C drying temperature and 30 psi nebulizer. In addition, ACh ([M+H]^+ m/z 146) and Ch ([M+H]^+ m/z 104), were analyzed by MS operating in the manual MS^n mode under positive ionization (scan 50–550 m/z). Enzymatic activity was quantified using a Ch standard external calibration curve prepared in 15 mM ammonium acetate solution, pH 8.0 with the final concentration ranging from 5 to 350 μM. An aliquot (10 μL) of each solution was injected in triplicate into the system using an empty fused silica capillary. The calibration curve was obtained by plotting the Ch [M+H]^+ m/z 104 area against the injected Ch concentration.
Stock solutions of each compound were prepared in methanol at 1.0 mM. The enzymatic activity of eelAChE-ICER was measured in the presence and absence of each compound. Reactions mixtures were prepared by mixing 20 μL of ACh stock solution (350 μM, in 15mM ammonium acetate solution, pH 5.0) with 10 μL of methanol or stock solution of compounds (1.0 mM) and 70 μL ammonium acetate solution (15mM, pH 8.0). Each reaction mixture (10 μL) was injected into the LC-MS system. The percentage of inhibition (%I) was calculated by comparing the product peak area in the presence of tested compound with positive control (absence of inhibitors).
Final volumes were completed with 70 μL ammonium acetate solution (15mM, pH 8.0) and each reaction mixture (10 μL) was injected into the LC-MS system. The inhibition curve was obtained for each sample by plotting the percentage of inhibition vs. each corresponding inhibitor concentration, and the IC50 values were achieved by non-linear regression analysis using GraphPad Prism 5 software.
For this purpose, the eelAChE-ICER activity was evaluated under different concentrations of ACh (10 to 150 μM) and at the fixed concentration of derivative 1a and 1b (0, 10, 50, and 75 μM). Lineweaver-Burk plots were used to determine the action mechanism for the inhibitors.
A linear replot was obtained, and the division quotient between the linear and angular coefficients provided the Ki values.

[2] = 20 μL ACh stock 350 μM, ammonium acetate 15 mM pH 8.0

Structure (SMILES): COc1cc2c(cc1O)-c1cc3ccc(O)c(OC)c3c[n+]1CC2 [stepharanine]
- IC50 (AChE): 14.1 µM

Structure (SMILES): COc1cc2c(cc1O)C1Cc3ccc(O)c(OC)c3C[N+]1(C)CC2 (stereo not shown) [N-methyl stepholidine]
- IC50 (AChE): 31.3 µM

Structure (SMILES): COc1cc2c(cc1O)[C@@H]1Cc3ccc(O)c(OC)c3C[N@@+]1(Cc1ccccc1)CC2 [1b, (7S,13aS)-7-benzylstepholidine]
- mechanism of inhibition [1]: non-competitive
- IC50 [1]: 51.9 ± 1 µM
- Ki [1]: 4.7 µM
- inhibition [1, 2]: 90.5 ± 2.48%

Structure (SMILES): COc1cc2c(cc1O)[C@@H]1Cc3ccc(O)c(OC)c3C[N@+]1(Cc1ccccc1)CC2 [1a, (7R,13aS)-7-benzylstepholidine]
- mechanism of inhibition [1]: non-competitive
- IC50 [1]: 40.6 ± 1 µM
- Ki [1]: 11.6 µM
- inhibition [1, 2]: 90.1 ± 2.04%

Structure (SMILES): COc1cc2c(cc1O)[C@@H]1Cc3ccc(OCc4ccccc4)c(OC)c3CN1CC2 [1d, (S)-10-O-benzylstepholidine]
- inhibition [1, 2]: 46.3 ± 5.45%

Structure (SMILES): COc1cc2c(cc1O)[C@@H]1Cc3ccc(O)c(OC)c3CN1CC2 [Stepholidine, stepholidine, reference compound]
- % Inhibition eelAChE-ICER ([1]; 10 μL of 1.0 mM compound stock in 100 μL reaction mixture, 20 μL ACh stock 350 μM, ammonium acetate 15 mM pH 8.0): 40.2 ± 1.65%
- inhibition [1, 2]: < 50%
- IC50 (AChE): > 100 µM

Structure (SMILES): COc1cc2c(cc1OCc1ccccc1)[C@@H]1Cc3ccc(OCc4ccccc4)c(OC)c3CN1CC2 [1e, (S)-O, O-dibenzylstepholidine]
- inhibition [1, 2]: 43.6 ± 2.54%

Structure (SMILES): COc1cc2c(cc1OCc1ccccc1)[C@@H]1Cc3ccc(O)c(OC)c3CN1CC2 [1c, (S)-2-O-benzylstepholidine]
- inhibition [1, 2]: 35.2 ± 5.02%
